Measurements from patent publication US20150025077A1 (COYOTE PHARMACEUTICALS, INC., priority 2012, published 2015).

What was measured:
HSP70 = HSP70 levels in Neuro 2a cells, ELISA; assay type: cell-based, mouse; details: 48 hrs compound then 24 hrs GGTI-298
Description: Mouse neuroblastoma 2a cells were cultured in DMEM with 10% FBS for 24 hrs. […] After 24 hrs cells were harvested and lysates were prepared and analyzed by ELISA for HSP70. Compound ID numbers in table refer to structures in Table 1 and Table 2.

Rap1 = test: Prenylation of Rap1 in Neuro2A cells, western blotting; assay type: cell-based, mouse; details: 100 nM; with GGTI-298; percentage of control (GGTI only)
Description: Mouse neuroblastoma Neuro2A cells were cultured in DMEM supplemented with 10% FBS for 24 hrs. The cells were treated with 102GGA derivative compounds for 24 hrs first before GGTase inhibitor GGTI-298 was added to the culture medium for additional 24 hr incubation. […] Both un-prenylated and total Rap1 protein bands were quantified using Image J and normalized to their respective loading control GAPDH. The results for control and each compound treatment were calculated as the ratio of normalized un-prenylated Rap1 to total Rap1, and averaged from two biological repeats of one experiment. The final results were presented as a percentage of the control treatments (GGTI only) from the same batch experiment. The data shown in the chart were averaged from two repeats of one experiment and presented as the ratio of normalized un-prenylated Rap1 to total Rapt Compound ID numbers in table refer to structures in Table 1 and Table 2.

RhoA = test: Active RhoA to total RhoA in Neuro2A cells (G-LISA, ELISA); assay type: cell-based, mouse; details: 48 hrs treatment, ratio of active RhoA to total RhoA as percentage of DMSO treatments, concentration not given
Description: Mouse neuroblastoma Neuro2A cells were cultured in DMEM supplemented with 10% FBS for 24 hrs. […] Cell lysates were quantified and subjected either to active RhoA assay using G-LISA RhoA activation Assay Biochem Kit (Cytoskeleton Inc), or to total RhoA assay using Total RhoA ELISA Kit (Cytoskeleton Inc). The results were calculated as ratio of active RhoA to total RhoA and averaged from 3 biological repeats of one experiment with background subtraction. The data was presented as percentage of DMSO treatments.

Sprague Dawley rats = test: Kainic acid stereotactic hippocampus injection model, fraction of cells damaged; assay type: in vivo, rat; details: KA at 72 hours
Description: CNS-102 was administered orally to Sprague Dawley rats at 12 mg/kg. After dosing, KA was stereotactically injected into the hippocampus at 24, 48, 72, 96 and 168 hours to induce neuron damage. After 24 h, hippocampus tissue was collected, stained, and imaged. The scans were analyzed by Image J to calculate the fraction of cells having KA-induced damage. Average fraction damaged in the hippocampus from ten animals for each treatment (PBS vs. 12 mg/kg CNS-102) by time (24, 48, 72, 96 and 168 hours) combination was estimated with PROC MIXED in SAS. Comparisons of the CNS-102 treatment groups to the pooled PBS treatment at the different times can be made, giving the results tabulated below.
The fraction of cells damaged in the kainic acid model was determined on 130 rats, each receiving one dose of CNS-102 at either 0, 1, 3, 6, 12 or 24 mg/kg. PBS was used for dosing at 0 mg/kg. The linear model of the log10 percent damage versus concentration is graphically shown FIG. 5.
After dosing, KA was stereotactically injected into the hippocampus at 72 hours to induce neuron damage. After 24 h, hippocampus tissue was collected, stained, and imaged. The scans were analyzed by Image J to calculate the fraction of cells having KA-induced damage.
The indicated compounds or vehicle control were orally dosed to Sprague-Dawley rats, and Kainic acid was injected. After dosing, KA was stereotactically injected into the hippocampus at 72 hours to induce neuron damage. After 24 h, hippocampus tissue was collected, stained, and imaged. The scans were analyzed by Image J to calculate the fraction of cells having KA-induced damage. Neurons damaged by Kainic acid (mean of hippocampus CA3 neurons damaged) were quantified.

SMILES | HSP70 level, ELISA signal (absence of compounds normalized as 1.00) (HSP70; 100 nM) | unprenylated/total RAP1 (%) (Rap1) | % Relative RhoGTPase Activity (RhoA) [%] | HSP70 level, ELISA signal (absence of compounds normalized as 1.00) (HSP70; 10 nM) | HSP70 level, ELISA signal (absence of compounds normalized as 1.00) (HSP70; 10uM) | Mean of Hippocampus CA3 Neurons Damaged (Sprague Dawley rats; 3 mg/kg oral) [%] | Mean of Hippocampus CA3 Neurons Damaged (Sprague Dawley rats; 2 mg/kg oral) [%]
CCOc1cc(OCC)cc(C(=O)OC/C=C(\C)CC/C=C(\C)CC/C=C(\C)CCC=C(C)C)c1 [Compound 2i, 2E, 6E, 10E-Geranylgeranyl-3′,5′-diethoxybenzoate] | 1.08 | 92 | 105.0 | – | – | – | –
CC(C)=CCC/C(C)=C/CC/C(C)=C/CC/C(C)=C/COC(=O)Nc1ccc(C(F)(F)F)cc1 [Compound 7q, p-Trifluoromethylphenyl 2E, 6E, 10E-geranylgeranyl carbamate] | – | 48 | 83.5 | 1.01 | – | – | –
CC(C)=CCC/C(C)=C/CC/C(C)=C/CC/C(C)=C/COC(=O)Nc1ccc2ccccc2c1 [Compound 7s, 2′-Naphthyl 2E, 6E, 10E-geranylgeranyl carbamate] | – | 89 | 86.9 | – | 1.10 | – | –
COc1ccc(NC(=O)OC/C=C(\C)CC/C=C(\C)CC/C=C(\C)CCC=C(C)C)c(OC)c1 [Compound 7w, 2′,4′-Dimethoxyphenyl 2E, 6E, 10E-geranylgeranyl carbamate] | 1.14 | 77 | 94.4 | – | – | – | –
CC(C)=CCC/C(C)=C/CC/C(C)=C/CC/C(C)=C/COC(=O)Nc1cc(Cl)c(Cl)c(Cl)c1 [Compound 7y, 3′,4′,5′-Trichlorophenyl 2E, 6E, 10E-geranylgeranyl carbamate] | – | 68 | 94.4 | – | 1.13 | – | –
CCCCCNC(=O)OC/C=C(\C)CC/C=C(\C)CCC=C(C)C [Compound 8b, n-Pentyl 2E, 6E-farnesyl carbamate] | – | 55 | 125.0 | – | 1.38 | 20 | –
CC(C)=CCC/C(C)=C/CC/C(C)=C/COC(=O)NC1CCCCC1 [Compound 8f, Cyclohexyl 2E, 6E-farnesyl carbamate] | – | – | 104.6 | – | 1.29 | – | –
CCC(C)NC(=O)OC/C=C(\C)CC/C=C(\C)CCC=C(C)C (centres unmarked) [Compound 8g, Sec-Butyl 2E, 6E-farnesyl carbamate] | – | – | 111.3 | 1.17 | 1.51 | – | –
C=CCNC(=O)OC/C=C(\C)CC/C=C(\C)CCC=C(C)C [Compound 8j, Allyl 2E, 6E-farnesyl carbamate] | – | – | 105.6 | 1.13 | 1.31 | – | –
CCOC(=O)CCNC(=O)OC/C=C(\C)CC/C=C(\C)CCC=C(C)C [Compound 8m, Carboethoxy-2′-ethyl 2E, 6E-farnesyl carbamate] | – | – | 111.4 | – | 1.05 | – | –
CC(C)=CCC/C(C)=C/CC/C(C)=C/COC(=O)Nc1ccccc1 [Compound 8o, Phenyl 2E, 6E-farnesyl carbamate] | – | – | 82.1 | – | 0.99 | – | –
CCNC(=S)OC/C=C(\C)CC/C=C(\C)CC/C=C(\C)CCC=C(C)C [Compound 10b, Ethyl 2E,6E,10E-geranylgeranyl thiocarbamate] | 1.06 | – | 86.2 | – | 1.34 | – | –
CCCCNC(=S)OC/C=C(\C)CC/C=C(\C)CC/C=C(\C)CCC=C(C)C [Compound 10e, O-((2E,6E,10E)-3,7,11,15-tetramethylhexadeca-2,6,10,14-tetraen-1-yl) butylcarbamothioate] | 1.09 | 56 | 89.7 | – | – | – | –
CC(C)=CCC/C(C)=C/CC/C(C)=C/CC/C(C)=C/c1cnco1 [Compound 14, 5-((1E,5E,9E)-2,6,10,14-tetramethylpentadeca-1,5,9,13-tetraen-1-yl)oxazole] | – | 96 | – | – | 0.96 | – | 13
COC(=O)[C@@H](NC(=O)OC(C)CC/C=C(\C)CC/C=C(\C)CCC=C(C)C)C(C)C (stereo partly drawn) [Compound 20j, 5E,9E-farnesyl prop-2-yl Methyl 2-(S)-(−)-3-methylbutyrate Carbamate] | – | 59 | 85.9 | – | – | – | –
CC(C)=CCC/C(C)=C/CC/C(C)=C/CC/C(C)=C/C1=N[C@@H](C(C)C)CO1 [Compound 27a, (S)-4-isopropyl-2-((1E,5E,9E)-2,6,10,14-tetramethylpentadeca-1,5,9,13-tetraen-1-yl)-4,5-dihydrooxazole] | 1.02 | 96 | – | – | – | – | 11
CC(C)=CCC/C(C)=C/CC/C(C)=C/CC/C(C)=C/C1=N[C@@H](C)CO1 [Compound 27b, (S)-4-methyl-2-((1E,5E,9E)-2,6,10,14-tetramethylpentadeca-1,5,9,13-tetraen-1-yl)-4,5-dihydrooxazole] | 1.16 | – | 89.0 | – | 1.22 | – | –
CC(C)=CCC/C(C)=C/CC/C(C)=C/CC/C(C)=C/c1nnc(-c2ccc(C)cc2)o1 [Compound 29b, 2-((1E,5E,9E)-2,6,10,14-tetramethylpentadeca-1,5,9,13-tetraen-1-yl)-5-(p-tolyl)-1,3,4-oxadiazole] | 1.11 | 49 | 96.1 | – | 1.17 | – | –
CC(C)=CCC/C(C)=C/CC/C(C)=C/CC/C(C)=C/C1=N[C@H](C(C)C)C(=O)O1 [Compound 37a, (R)-4-isopropyl-2-((1E,5E,9E)-2,6,10,14-tetramethylpentadeca-1,5,9,13-tetraen-1-yl)oxazol-5(4H)-one] | 1.04 | – | 106.8 | – | 1.10 | – | –
CNC(=S)OC/C=C(\C)CC/C=C(\C)CCC=C(C)C [Compound 43, O-((2E,6E)-3,7,11-trimethyldodeca-2,6,10-trien-1-yl) methylcarbamothioate] | – | – | 102.7 | – | 0.95 | – | –
CC(C)=CCC/C(C)=C/CC/C(C)=C/CC/C(C)=C/CCC1(C)OCCO1 [Compound 105] | – | 64 | 85.1 | – | – | – | –
CCOC(=O)C(C/C=C(\C)CC/C=C(\C)CC/C=C(\C)CC/C=C(\C)CCC=C(C)C)C(C)=O (centres unmarked) [Compound 135] | – | 50 | 93.2 | – | 1.07 | – | –
